From ChEMBL document CHEMBL5137055, “Near-Infrared Fluorescent Probes as Imaging and Theranostic Modalities for Amyloid-Beta and Tau Aggregates in Alzheimer's Disease” (J Med Chem, 2022)

Key:
[1] = Binding affinity to amyloid beta (unknown origin); design: species or system Homo sapiens
[2] = Binding affinity to amyloid beta (unknown origin) monomer; design: species or system Homo sapiens
[3] = Binding affinity to amyloid beta (unknown origin) aggregates; design: species or system Homo sapiens
[4] = Binding affinity to tau protein (unknown origin); design: species or system Homo sapiens
[5] = target: Amyloid-beta precursor protein (Homo sapiens, UniProt P05067); test: Binding affinity to amyloid beta (1 to 40) (unknown origin) fibrils
Sequence of Amyloid-beta precursor protein (P05067 whole entry): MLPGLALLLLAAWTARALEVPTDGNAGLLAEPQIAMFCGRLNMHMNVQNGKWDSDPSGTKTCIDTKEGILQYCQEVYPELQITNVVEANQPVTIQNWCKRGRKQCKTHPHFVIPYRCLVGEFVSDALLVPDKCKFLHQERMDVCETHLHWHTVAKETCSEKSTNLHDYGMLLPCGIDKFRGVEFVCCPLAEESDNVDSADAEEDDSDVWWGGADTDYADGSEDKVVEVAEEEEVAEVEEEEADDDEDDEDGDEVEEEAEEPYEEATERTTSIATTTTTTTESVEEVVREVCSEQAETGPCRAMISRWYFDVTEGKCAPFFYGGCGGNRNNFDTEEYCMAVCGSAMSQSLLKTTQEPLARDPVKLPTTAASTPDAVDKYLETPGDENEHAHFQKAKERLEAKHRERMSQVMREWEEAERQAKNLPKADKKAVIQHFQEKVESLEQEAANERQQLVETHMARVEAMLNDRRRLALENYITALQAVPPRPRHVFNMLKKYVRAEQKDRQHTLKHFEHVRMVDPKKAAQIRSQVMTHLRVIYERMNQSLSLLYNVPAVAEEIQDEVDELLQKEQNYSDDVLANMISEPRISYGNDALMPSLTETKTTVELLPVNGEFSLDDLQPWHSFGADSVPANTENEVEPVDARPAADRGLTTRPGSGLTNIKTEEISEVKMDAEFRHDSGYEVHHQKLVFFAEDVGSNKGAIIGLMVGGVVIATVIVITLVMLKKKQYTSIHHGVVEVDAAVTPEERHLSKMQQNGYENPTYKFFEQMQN

## CN(C)c1ccc(-c2ccc(/C=C/C3=CC(=C(C#N)C#N)c4ccccc4N3CCCS(=O)(=O)O)s2)cc1
[1]
  Kd: 170 nM

## COCCOCCOCC1=C2C(C)=CC(/C=C/c3ccc(N(C)C)cc3)=[N+]2[B-](F)(F)n2c(/C=C/c3ccc(N(C)C)cc3)cc(C)c21
[2]
  Kd: 97 nM

## Cc1cc(/C=C/c2ccc3cc(N(C)C)ccc3c2)n2c1C=C1C=CC=[N+]1[B-]2(F)F
[3]
  Kd: 161 nM
[4]
  Kd: 1.19 nM

## Cc1ccc2nc(-c3ccc(N(C)C)cc3)sc2c1
[5]
  Ki: 143 nM

## COc1cc(/C=C/C(O)=C/C(=O)/C=C/c2ccc(OCCCF)c(OC)c2)ccc1O
[1]
  Ki: 0.07 nM

## COCCOCCn1c2ccccc2c2cc(/C=C/c3cc[n+](CCO)c4ccccc34)ccc21
[5]
  Kd: 92000 nM

## COc1cc(N(C)C)cc(OC)c1/C=C/C=C/C=C/C(C#N)C(=O)OCc1ccco1 (configuration not stated)
[1]
  Kd: 1500 nM
[4]
  Kd: 1020 nM

## CN(C)c1ccc2cc3c(cc2c1)OCC(C=C(C#N)C#N)=C3
[1]
  Kd: 44.6 nM

## N#CC(C#N)=Cc1ccc(-c2ccc(-c3ccc(O)cc3)s2)s1
[1]
  Kd: 54.6 nM
  Ki: 10 nM

## COCCOCCn1c2ccccc2c2cc(/C=C/c3cc[n+](C)cc3)ccc21
[5]
  Kd: 194000 nM

## COCCOCCOCC1=C2C(C)=CC(C)=[N+]2[B-](F)(F)n2c(/C=C/c3ccc(N(C)C)cc3)cc(C)c21
[2]
  Kd: 48.6 nM

## COc1cc(N(C)C)cc(OC)c1/C=C/C(=O)/C=C(O)/C=C/c1c(OC)cc(N(C)C)cc1OC
[4]
  IC50: 770 nM

## C(=C\c1cc(/C=C/c2ccc(N3CCCC3)cc2)ncn1)/c1ccc(N2CCCC2)cc1
[1]
  IC50: 2 nM
[4]
  Kd: 52 nM

## CC1=[N+]2C(=C(/C=C/c3ccc(N(C)C)cc3)c3ccc(C)n3[B-]2(F)F)C=C1
[2]
  Kd: 320 nM

## Cc1cc(/C=C/c2ccc(-c3ccc(N(C)C)cc3)s2)n2c1C=C1C=CC=[N+]1[B-]2(F)F
[2]
  Kd: 27 nM

## Cc1ccc2c(sc(-c3ccc4c(c3)sc(-c3ccc(N(C)C)cc3)[n+]4C)[n+]2C)c1S(=O)(=O)O
[4]
  Kd: 1900 nM

## COCCOCCOCCOC(=O)/C(C#N)=C/c1ccc(-c2ccc3cc(N4CCCCC4)ccc3c2)n1C
[3]
  Kd: 2300 nM

## Cc1cc(/C=C/c2ccc(-c3ccc(N(C)C)cc3)o2)n2c1C=C1C=CC=[N+]1[B-]2(F)F
[2]
  Kd: 18 nM

## COCCOCCn1c2ccccc2c2cc(/C=C/c3cc[n+](CCO)cc3)ccc21
[5]
  Kd: 459000 nM

## Cc1cc(/C=C/c2ccc(N(C)C)o2)n2c1C=C1C=CC=[N+]1[B-]2(F)F
[2]
  Kd: 149 nM

## CN(C)c1ccc(/C=C/c2cc(/C=C/c3ccc(N(C)C)cc3)ncn2)cc1
[1]
  IC50: 4 nM
[4]
  Kd: 54 nM

## CN(C)c1ccc(/C=C/C=C/C=C/C=C(C#N)C#N)cn1
[1]
  Ki: 92.6 nM

## CN(C)c1ccc(/C=C/c2cnc3ccccc3n2)s1
[1]
  Kd: 25.2 nM
[4]
  Kd: 127 nM

## C[N+]1=C(/C=C/c2ccc(N3CCCC3)cc2)C(C)(C)c2ccccc21
[5]
  Kd: 8310 nM
[4]
  IC50: 5.1 nM

## COCCOCCOCCOC(=O)/C(C#N)=C/c1ccc(-c2ccc3cc(N4CCCCC4)ccc3c2)s1
[3]
  Kd: 530 nM

## COCCOCCOCCOC(=O)/C(C#N)=C/c1ccc(-c2ccc3cc(N4CCCCC4)ccc3c2)o1
[3]
  Kd: 360 nM

## O=C(O)c1cc(/N=N/c2ccc(-c3ccc(/N=N/c4ccc(O)c(C(=O)O)c4)cc3)cc2)ccc1O [CHRYSAMINE G]
[1]
  Ki: 370 nM

## CC(=C(C#N)C#N)c1ccc2cc(N(C)CCF)ccc2c1
[3]
  Ki: 0.2 nM

## CC(=C(C#N)C#N)c1ccc2cc(N(C)C)ccc2c1
[3]
  Ki: 10 nM

## CN(C)c1ccc(/C=C/C=C/C=C/C=C(C#N)C#N)cc1
[1]
  Ki: 14.1 nM

## CC(C)CC1=CC(/C=C/C=C/c2ccc(N(C)C)cc2)=[O+][B-](F)(F)O1
[1]
  Kd: 1410 nM
[4]
  Kd: 50000 nM

## CNc1ccc(-c2nc3ccc(O)cc3s2)cc1[18F] [FLUTEMETAMOL F 18]
[1]
  Kd: 6.7 nM

## COCCOCCOCCOC(=O)/C(C#N)=C/c1ccc(N2CCCCC2)cc1
[3]
  Kd: 19400 nM

## CN(C)c1ncc(/C=C/C=C/C=C/C=C(C#N)C#N)cn1
[1]
  Ki: 978 nM

## CC[n+]1c(/C=C/C=C/c2ccc(N(C)C)cc2)sc2ccccc21
[5]
  Kd: 1220 nM
[4]
  Kd: 126 nM

## Cc1cc(/C=C/c2ccc(N(C)C)s2)n2c1C=C1C=CC=[N+]1[B-]2(F)F
[2]
  Kd: 55 nM

## Cc1cc(/C=C/C=C/c2ccc(N(C)C)cc2)n2c1C=C1C=CC=[N+]1[B-]2(F)F
[3]
  Kd: 325 nM
[4]
  Kd: 2.86 nM
